Here are results for ten compounds from ChEMBL document CHEMBL4373741, “Direct and straightforward access to substituted alkyl selenols as novel carbonic anhydrase inhibitors” (Eur J Med Chem, 2020).

One assay deals with Carbonic anhydrase 9 (Homo sapiens, UniProt Q16790). Briefly: Inhibition of recombinant human CA9 incubated for 15 mins by phenol red dye based stopped flow CO2 hydration assay.
For a further assay, the target named is Carbonic anhydrase 7 (Homo sapiens, UniProt P43166). Briefly: Inhibition of recombinant human CA7 incubated for 15 mins by phenol red dye based stopped flow CO2 hydration assay.
Sequence of Carbonic anhydrase 7 (P43166 whole entry): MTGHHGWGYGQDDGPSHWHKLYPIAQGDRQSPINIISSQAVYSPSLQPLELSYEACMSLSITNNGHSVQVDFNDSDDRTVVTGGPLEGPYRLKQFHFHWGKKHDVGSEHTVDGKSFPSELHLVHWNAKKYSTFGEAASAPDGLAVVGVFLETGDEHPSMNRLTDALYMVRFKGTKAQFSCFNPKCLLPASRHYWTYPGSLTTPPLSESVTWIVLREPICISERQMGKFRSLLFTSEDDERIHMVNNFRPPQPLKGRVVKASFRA

As to `SC(C[SeH])COCc1ccccc1` (stereo not given), at Carbonic anhydrase 9, the Ki turned out to be 6.6 µM.
Regarding `COc1ccc(COCC(O)C[SeH])cc1` (stereo not given), the Ki at Carbonic anhydrase 9 and on Carbonic anhydrase 7 was greater than 100 µM throughout.
Regarding `O[C@H](CCl)C[SeH]`, the Ki at Carbonic anhydrase 9 and on Carbonic anhydrase 7 was greater than 100 µM each time.
On to `Cc1ccc(S(=O)(=O)N[C@H](C[SeH])C(C)C)cc1`, for which, at Carbonic anhydrase 9, the Ki came to 2.1 µM.
For `CC[C@H](C)[C@@H](C[SeH])NS(=O)(=O)c1ccc(C)cc1`, the Ki at Carbonic anhydrase 9 and on Carbonic anhydrase 7 was greater than 100 µM in each case.
As for `C=CCOCC(O)C[SeH]` (stereo not given), on Carbonic anhydrase 9, the Ki was greater than 100 µM.
As for `C=CCOCC(S)C[SeH]` (stereo not given), the Ki on Carbonic anhydrase 9 was 38.6 µM; on Carbonic anhydrase 7, greater than 100 µM.
For `O[C@@H](CCl)C[SeH]`, the Ki at Carbonic anhydrase 9 was 60 µM; at Carbonic anhydrase 7 it was greater than 100 µM.
Take `OC(C[SeH])COCc1ccccc1` (stereo not given): the Ki at Carbonic anhydrase 9 is 58.7 µM.
The same measure, in the same setting: to `CC(C)[C@@H](C[SeH])NC(=O)OC(C)(C)C` belongs greater than 100 µM.

As usually defined, the Ki is the equilibrium dissociation constant of an inhibitor or competing ligand from its target.
